Consider 17 compounds from patent US11970493B2, “Autotaxin inhibitor compounds” (ILDONG PHARMACEUTICAL CO., LTD., priority 2020, dated 2024).

Structures can show the parent of a compound that is named as a salt.

Data set [1] concerns LPA 18:2 level in mouse plasma. The data set can be described thus: In vitro LPA assay, reduction of LPA 18:2 level in mouse plasma (LC-MS/MS). The class given is biochemical. The note with it: 2 hr at 37° C., LPA 18:2 reduction. The protocol: (§1) Autotaxin (ATX) plays an important role in lysophosphatidic acid (LPA) signaling. An in vitro LPA assay was conducted to determine IC50 values of the test compounds on reduction of LPA 18:2 level in rat or mouse plasma. This example describes the assay data (IC50 value ranges) of exemplary compounds from LPA assays using mouse and rat plasma. Compound GPLG-1690 was assayed as a reference compound.
(§2) The 10 mM DMSO stock solutions of test compounds and 4-fold serial dilutions of the test compounds were prepared at various concentrations. The diluted solutions of the compounds were diluted with 1×PBS (pH 7.5) buffer. 38 μL of rat or mouse plasma samples were mixed with 2 μL of the diluted solutions of the compounds or 2% DMSO solutions in 96-well plate (final 0.1% DMSO). After incubating for 2 hr at 37° C., 120 μL MeOH containing IS (250 ng/mL of LPA 17:0) was added to each well. Mixture was vortexed for 1 min, and then centrifuged for 30 min (4000 rpm, 4° C.). 100 μL supernatant was transferred to a 96-well plate containing 100 μL pure water and the plate was shaken for 10 min. 5 μL supernatant was injected into LC-MS/MS system. No calibration curve will be prepared for LPA 18:2 and all quantifications were performed based on peak area ratios (LPA 18:2/LPA 17:0). For each concentration of compound LPA data were expressed as percentage of reduction (% reduction) using the formula. 100−[((LPA ratio-LPA ratio in control sample after 0 hr incubation)/(LPA ratio in control sample after 2 hr incubation—LPA ratio in control sample after 0 hr incubation))*100]. Data

The subject of data set [2] is LPA 18:2 level in rat plasma. The data set can be described thus: In vitro LPA assay, reduction of LPA 18:2 level in rat plasma (LC-MS/MS). Format: biochemical. Particulars: 2 hr at 37° C., LPA 18:2 reduction. The protocol:
as §1, §2

A further data set has as its target hATX/ENPP2 (Homo sapiens, UniProt Q13822). The data set can be described thus: hATX/ENPP2 biochemical assay using 16:0-LPC as substrate (Amplex Red/choline oxidase/HRP fluorescence). The note with it: hENPP2 2.5 nM, LPC (16:0) substrate. In a few lines: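 Enzyme preincubated with compounds 15 min at room temperature in 50 mM Tris-HCl pH 8.0, 140 mM NaCl, 5 mM CaCl2, 0.01% Triton X-100. Reaction started with 80 μM LPC (16:0) stock plus Amplex Red/choline oxidase/HRP mix; fluorescence (ex 530/em 590 nm) read kinetically. IC50 from slope between 60 and 70 min.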

The nature of data set [3]: Mouse PK study (IV and PO). The note with it: male, C57BL/6, mouse, plasma, male C57BL/6 mice; for AUC(0-inf): IV 2 mg/kg and PO 10 mg/kg study; for bioavailability / Cmax: po, 10 mg/kg; for bioavailability: IV 2 mg/kg and PO 10 mg/kg, read-out: F % (bioavailability); for Cmax: PO group 10 mg/kg. Format: in vivo. The protocol: This example describes the pharmacokinetic (PK) data obtained for various compounds of the present disclosure, from studies using mice. The following PK parameters were calculated: • Bioavailability (F %) were calculated using the linear/log trapezoidal rule • Peak plasma concentrations (Cmax (ng/mL)) were taken directly from the plasma concentration vs. time profiles for the PO group • Area under the curve e.g., the area under the concentration curve from time 0 to infinity (AUC0-inf(ng*h/mL)). Experimental Procedures
After intravenous (IV) and oral (PO) administration at 2 mg/kg and 10 mg/kg to male C57BL/6 mice, respectively, the blood samples were collected at the designed sampling time points. All blood samples were transferred into pre-chilled commercial polyethylene microcentrifuge tubes containing K2-EDTA as an anticoagulant. Samples were processed for plasma by centrifugation. Plasma samples was transferred into polypropylene tubes pre-chilled on dry ice and then quickly frozen over dry ice and kept at −70±10° C. until LC-MS/MS analysis. Mice plasma samples were analyzed using qualified bioanalytical methods based on protein precipitation followed by LC-MS/MS analysis. Individual plasma concentration data of each compound was subjected to noncompartmental pharmacokinetic analysis using Phoenix WinNonlin™. Nominal doses were used for pharmacokinetic parameters calculation.

For `CCc1nc2ccc(-c3cnc(N4CCN(CC(=O)N5CC[C@@H](O)C5)CC4)nc3)cn2c1N(C)c1nc(-c2ccc(F)cc2)c(C#N)s1` [45 (hydrochloride salt), (R)-2-((2-ethyl-6-(2-(4-(2-(3-hydroxypyrrolidin-1-yl)-2-oxoethyl)piperazin-1-yl)pyrimidin-5-yl)imidazo[1,2-a]pyridin-3-yl)(methyl)amino)-4-(4-fluorophenyl)thiazole-5-carbonitrile], the IC50 – broadly, the concentration at which inhibition is half-maximal – in data set [1] is 200 to 800 nM; in data set [2] it was not above 200 nM.

For `CCc1nc2ccc(-c3cnc(N4CCN(CC(=O)N5CC[C@H](O)C5)CC4)nc3)cn2c1N(C)c1nc(-c2ccc(F)cc2)c(C#N)s1` [46 (hydrochloride salt), (S)-2-((2-ethyl-6-(2-(4-(2-(3-hydroxypyrrolidin-1-yl)-2-oxoethyl)piperazin-1-yl)pyrimidin-5-yl)imidazo[1,2-a]pyridin-3-yl)(methyl)amino)-4-(4-fluorophenyl)thiazole-5-carbonitrile], the IC50 in data set [1] and in data set [2] was 200 to 800 nM throughout.

As to `CCc1nc2ccc(-c3cnc(N4CCN(C(=O)C5CN(C)C5)CC4)nc3)cn2c1N(C)c1nc(-c2ccc(F)cc2)c(C#N)s1` [79 (hydrochloride salt)], the values for the IC50 (on hATX/ENPP2; in data set [1]; in data set [2]) were not above 20 nM, 200 to 800 nM and not above 200 nM, respectively.

At hATX/ENPP2, `CCc1nc2ccc(-c3cnc(N4CCN(C(=O)C5(C#N)CC5)CC4)nc3)cn2c1N(C)c1nc(-c2ccc(F)cc2)c(C#N)s1` [Compound 1, 2-((6-(2-(4-(1-cyanocyclopropane-1-carbonyl)piperazin-1-yl)pyrimidin-5-yl)-2-ethylimidazo[1,2-a]pyridin-3-yl)(methyl)amino)-4-(4-fluorophenyl) thiazole-5-carbonitrile] returned an IC50 not above 20 nM. For the same compound, in data set [3], the AUC(0-inf) – broadly, total exposure, with the tail of the curve extrapolated – was 27200 ng·h/mL; the bioavailability (usually the share of a dose that reaches the circulation, judged against a reference dose that is usually intravenous) is 56.5%; the highest level (Cmax) was 3030 ng/mL.

At hATX/ENPP2, `CCc1nc2ccc(-c3cnc(N4CCN(C(=O)C5(O)CC5)CC4)nc3)cn2c1N(C)c1nc(-c2ccc(F)cc2)c(C#N)s1` [Compound 2, 2-((2-ethyl-6-(2-(4-(1-hydroxycyclopropane-1-carbonyl)piperazin-1-yl)pyrimidin-5-yl)imidazo[1,2-a]pyridin-3-yl)(methyl)amino)-4-(4-fluorophenyl)thiazole-5-carbonitrile] gave an IC50 not above 20 nM. Besides, in data set [3], the AUC(0-inf) worked out at 35100 ng·h/mL, the bioavailability is 61% and the concentration peaked (Cmax) at 4070 ng/mL.

`CCc1nc2ccc(-c3cnc(C(=O)N4CCCC4)nc3)cn2c1N(C)c1nc(-c2ccc(F)cc2)c(C#N)s1` [Compound 47, 2-((2-ethyl-6-(2-(pyrrolidine-1-carbonyl)pyrimidin-5-yl)imidazo[1,2-a]pyridin-3-yl)(methyl)amino)-4-(4-fluorophenyl)thiazole-5-carbonitrile]: the IC50 at hATX/ENPP2 lay in the range of 20 to 200 nM. Besides, in data set [3], the AUC(0-inf) was determined as 42300 ng·h/mL; the bioavailability stood at 62.3%; the Cmax (in general, the highest concentration seen after dosing) was found to be 4760 ng/mL.

As for `CCc1nc2ccc(-c3ccc(N4CCN(C(=O)C5CN(C)C5)CC4)nc3)cn2c1N(C)c1nc(-c2ccc(F)cc2)c(C#N)s1` [Compound 86 hydrochloride, 2-((2-ethyl-6-(6-(4-(1-methylazetidine-3-carbonyl)piperazin-1-yl)pyridin-3-yl)imidazo[1,2-a]pyridin-3-yl)(methyl)amino)-4-(4-fluorophenyl)thiazole-5-carbonitrile hydrochloride], the IC50 in data set [1] was more than 800 nM; in data set [2], 200 to 800 nM.

For `CCc1nc2ccc(-c3cnc(C4CCN(CC(=O)N5CCCC5)CC4)nc3)cn2c1N(C)c1nc(-c2ccc(F)cc2)c(C#N)s1` [Compound 104, 2-((2-ethyl-6-(2-(1-(2-oxo-2-(pyrrolidin-1-yl)ethyl)piperidin-4-yl)pyrimidin-5-yl)imidazo[1,2-a]pyridin-3-yl)(methyl)amino)-4-(4-fluorophenyl)thiazole-5-carbonitrile], the IC50 at hATX/ENPP2 is 20 to 200 nM.

As for `CCc1nc2ccc(-c3cnc(N4CC(NC5CC5)C4)nc3)cn2c1N(C)c1nc(-c2ccc(F)cc2)c(C#N)s1` [Compound 105, 2-((6-(2-(3-(cyclopropylamino)azetidin-1-yl)pyrimidin-5-yl)-2-ethylimidazo[1,2-a]pyridin-3-yl)(methyl)amino)-4-(4-fluorophenyl)thiazole-5-carbonitrile], the IC50 on hATX/ENPP2 is 20 to 200 nM.

On hATX/ENPP2, `CCc1nc2ccc(-c3cnc(N4CC(NC5CCC5)C4)nc3)cn2c1N(C)c1nc(-c2ccc(F)cc2)c(C#N)s1` [Compound 106, 2-((6-(2-(3-(cyclobutylamino)azetidin-1-yl)pyrimidin-5-yl)-2-ethylimidazo[1,2-a]pyridin-3-yl)(methyl)amino)-4-(4-fluorophenyl)thiazole-5-carbonitrile] registered an IC50 of 20 to 200 nM.

Turning to `CCc1nc2ccc(-c3cnc(N4CCC(NC5CC5)CC4)nc3)cn2c1N(C)c1nc(-c2ccc(F)cc2)c(C#N)s1` [Compound 107, 2-((6-(2-(4-(cyclopropylamino)piperidin-1-yl)pyrimidin-5-yl)-2-ethylimidazo[1,2-a]pyridin-3-yl)(methyl)amino)-4-(4-fluorophenyl)thiazole-5-carbonitrile], the IC50 at hATX/ENPP2 was in the range of 20 to 200 nM.

In turn, `CCc1nc2ccc(-c3cnc(N4CCC(NC5CCC5)CC4)nc3)cn2c1N(C)c1nc(-c2ccc(F)cc2)c(C#N)s1` [Compound 108, 2-((6-(2-(4-(cyclobutylamino)piperidin-1-yl)pyrimidin-5-yl)-2-ethylimidazo[1,2-a]pyridin-3-yl)(methyl)amino)-4-(4-fluorophenyl)thiazole-5-carbonitrile] came in with an IC50 on hATX/ENPP2 of 20 to 200 nM.

`CCc1nc2ccc(-c3cnc(N4CCN(C(=O)C5CC5)CC4)nc3)cn2c1N(C)c1nc(-c2ccc(F)cc2)c(C#N)s1` [Compound 110, 2-((6-(2-(4-(cyclopropanecarbonyl)piperazin-1-yl)pyrimidin-5-yl)-2-ethylimidazo[1,2-a]pyridin-3-yl)(methyl)amino)-4-(4-fluorophenyl) thiazole-5-carbonitrile] gave an IC50 at hATX/ENPP2 of 20 to 200 nM.

Compound `CCc1nc2ccc(-c3cnc(N4CCN(C(=O)C5CN(C6CC6)C5)CC4)nc3)cn2c1N(C)c1nc(-c2ccc(F)cc2)c(C#N)s1` [Compound 111, 2-((6-(2-(4-(1-cyclopropylazetidine-3-carbonyl)piperazin-1-yl)pyrimidin-5-yl)-2-ethylimidazo[1,2-a]pyridin-3-yl)(methyl)amino)-4-(4-fluorophenyl)thiazole-5-carbonitrile] yielded an IC50 on hATX/ENPP2 of 20 to 200 nM.

In turn, `CCc1nc2ccc(-c3ccc(N4CCN(C(=O)C5CCCC5)CC4)nc3)cn2c1N(C)c1nc(-c2ccc(F)cc2)c(C#N)s1` [Compound 112, 2-((6-(6-(4-(cyclopentanecarbonyl)piperazin-1-yl)pyridin-3-yl)-2-ethylimidazo[1,2-a]pyridin-3-yl)(methyl)amino)-4-(4-fluorophenyl)thiazole-5-carbonitrile] displayed an IC50 against hATX/ENPP2 of 20 to 200 nM.

Consider `CCc1nc2ccc(-c3ccc(N4CCC(C(=O)N5CCC5)CC4)nc3)cn2c1N(C)c1nc(-c2ccc(F)cc2)c(C#N)s1` [Compound 122, 2-((6-(6-(4-(azetidine-1-carbonyl)piperidin-1-yl)pyridin-3-yl)-2-ethylimidazo[1,2-a]pyridin-3-yl)(methyl)amino)-4-(4-fluorophenyl)thiazole-5-carbonitrile], for which the 50% inhibitory concentration (IC50) against hATX/ENPP2 is not above 20 nM. In data set [3], the AUC(0-inf) stood at 47700 ng·h/mL, the bioavailability was found to be 57.8% and the Cmax worked out at 7000 ng/mL.

`CCc1nc2c(C)cc(N3CCN(CC(=O)N4CC(O)C4)CC3)cn2c1N(C)c1nc(-c2ccc(F)cc2)c(C#N)s1` [GPLG-1690, Ziritaxestat, reference compound]: the IC50 in data set [1] and in data set [2] was more than 800 nM each time.
